According to ChEMBL document CHEMBL1147699, “Studies on the novel alpha-glucosidase inhibitory activity and structure-activity relationships for andrographolide analogues” (Bioorg Med Chem Lett, 2006):
The source made the active and inactive calls. No cut-off for these calls is given here.

What was measured:
[1] = molecular target: Maltase-glucoamylase (Homo sapiens) (UniProt O43451); test: Inhibition of alpha glucosidase at 100 uM
[2] = molecular target: T1, Cytosolic beta-glucosidase (Homo sapiens) (UniProt Q9H227); test: Inhibition of beta glucosidase at 100 uM
T1 sequence (whole entry): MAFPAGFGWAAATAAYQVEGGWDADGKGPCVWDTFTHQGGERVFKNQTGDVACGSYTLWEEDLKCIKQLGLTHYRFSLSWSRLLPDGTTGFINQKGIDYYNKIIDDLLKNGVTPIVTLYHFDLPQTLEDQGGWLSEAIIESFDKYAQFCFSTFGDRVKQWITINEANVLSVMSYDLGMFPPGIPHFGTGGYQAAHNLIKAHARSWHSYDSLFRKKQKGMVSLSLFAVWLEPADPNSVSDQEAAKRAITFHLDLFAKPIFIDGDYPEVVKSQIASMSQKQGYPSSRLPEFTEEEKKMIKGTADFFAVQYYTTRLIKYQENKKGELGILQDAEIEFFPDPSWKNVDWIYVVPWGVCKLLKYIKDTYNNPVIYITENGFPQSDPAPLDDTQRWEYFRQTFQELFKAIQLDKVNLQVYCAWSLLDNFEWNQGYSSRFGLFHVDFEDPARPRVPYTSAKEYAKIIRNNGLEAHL

Maltase-glucoamylase (Homo sapiens), sequence (O43451 whole entry, looked up): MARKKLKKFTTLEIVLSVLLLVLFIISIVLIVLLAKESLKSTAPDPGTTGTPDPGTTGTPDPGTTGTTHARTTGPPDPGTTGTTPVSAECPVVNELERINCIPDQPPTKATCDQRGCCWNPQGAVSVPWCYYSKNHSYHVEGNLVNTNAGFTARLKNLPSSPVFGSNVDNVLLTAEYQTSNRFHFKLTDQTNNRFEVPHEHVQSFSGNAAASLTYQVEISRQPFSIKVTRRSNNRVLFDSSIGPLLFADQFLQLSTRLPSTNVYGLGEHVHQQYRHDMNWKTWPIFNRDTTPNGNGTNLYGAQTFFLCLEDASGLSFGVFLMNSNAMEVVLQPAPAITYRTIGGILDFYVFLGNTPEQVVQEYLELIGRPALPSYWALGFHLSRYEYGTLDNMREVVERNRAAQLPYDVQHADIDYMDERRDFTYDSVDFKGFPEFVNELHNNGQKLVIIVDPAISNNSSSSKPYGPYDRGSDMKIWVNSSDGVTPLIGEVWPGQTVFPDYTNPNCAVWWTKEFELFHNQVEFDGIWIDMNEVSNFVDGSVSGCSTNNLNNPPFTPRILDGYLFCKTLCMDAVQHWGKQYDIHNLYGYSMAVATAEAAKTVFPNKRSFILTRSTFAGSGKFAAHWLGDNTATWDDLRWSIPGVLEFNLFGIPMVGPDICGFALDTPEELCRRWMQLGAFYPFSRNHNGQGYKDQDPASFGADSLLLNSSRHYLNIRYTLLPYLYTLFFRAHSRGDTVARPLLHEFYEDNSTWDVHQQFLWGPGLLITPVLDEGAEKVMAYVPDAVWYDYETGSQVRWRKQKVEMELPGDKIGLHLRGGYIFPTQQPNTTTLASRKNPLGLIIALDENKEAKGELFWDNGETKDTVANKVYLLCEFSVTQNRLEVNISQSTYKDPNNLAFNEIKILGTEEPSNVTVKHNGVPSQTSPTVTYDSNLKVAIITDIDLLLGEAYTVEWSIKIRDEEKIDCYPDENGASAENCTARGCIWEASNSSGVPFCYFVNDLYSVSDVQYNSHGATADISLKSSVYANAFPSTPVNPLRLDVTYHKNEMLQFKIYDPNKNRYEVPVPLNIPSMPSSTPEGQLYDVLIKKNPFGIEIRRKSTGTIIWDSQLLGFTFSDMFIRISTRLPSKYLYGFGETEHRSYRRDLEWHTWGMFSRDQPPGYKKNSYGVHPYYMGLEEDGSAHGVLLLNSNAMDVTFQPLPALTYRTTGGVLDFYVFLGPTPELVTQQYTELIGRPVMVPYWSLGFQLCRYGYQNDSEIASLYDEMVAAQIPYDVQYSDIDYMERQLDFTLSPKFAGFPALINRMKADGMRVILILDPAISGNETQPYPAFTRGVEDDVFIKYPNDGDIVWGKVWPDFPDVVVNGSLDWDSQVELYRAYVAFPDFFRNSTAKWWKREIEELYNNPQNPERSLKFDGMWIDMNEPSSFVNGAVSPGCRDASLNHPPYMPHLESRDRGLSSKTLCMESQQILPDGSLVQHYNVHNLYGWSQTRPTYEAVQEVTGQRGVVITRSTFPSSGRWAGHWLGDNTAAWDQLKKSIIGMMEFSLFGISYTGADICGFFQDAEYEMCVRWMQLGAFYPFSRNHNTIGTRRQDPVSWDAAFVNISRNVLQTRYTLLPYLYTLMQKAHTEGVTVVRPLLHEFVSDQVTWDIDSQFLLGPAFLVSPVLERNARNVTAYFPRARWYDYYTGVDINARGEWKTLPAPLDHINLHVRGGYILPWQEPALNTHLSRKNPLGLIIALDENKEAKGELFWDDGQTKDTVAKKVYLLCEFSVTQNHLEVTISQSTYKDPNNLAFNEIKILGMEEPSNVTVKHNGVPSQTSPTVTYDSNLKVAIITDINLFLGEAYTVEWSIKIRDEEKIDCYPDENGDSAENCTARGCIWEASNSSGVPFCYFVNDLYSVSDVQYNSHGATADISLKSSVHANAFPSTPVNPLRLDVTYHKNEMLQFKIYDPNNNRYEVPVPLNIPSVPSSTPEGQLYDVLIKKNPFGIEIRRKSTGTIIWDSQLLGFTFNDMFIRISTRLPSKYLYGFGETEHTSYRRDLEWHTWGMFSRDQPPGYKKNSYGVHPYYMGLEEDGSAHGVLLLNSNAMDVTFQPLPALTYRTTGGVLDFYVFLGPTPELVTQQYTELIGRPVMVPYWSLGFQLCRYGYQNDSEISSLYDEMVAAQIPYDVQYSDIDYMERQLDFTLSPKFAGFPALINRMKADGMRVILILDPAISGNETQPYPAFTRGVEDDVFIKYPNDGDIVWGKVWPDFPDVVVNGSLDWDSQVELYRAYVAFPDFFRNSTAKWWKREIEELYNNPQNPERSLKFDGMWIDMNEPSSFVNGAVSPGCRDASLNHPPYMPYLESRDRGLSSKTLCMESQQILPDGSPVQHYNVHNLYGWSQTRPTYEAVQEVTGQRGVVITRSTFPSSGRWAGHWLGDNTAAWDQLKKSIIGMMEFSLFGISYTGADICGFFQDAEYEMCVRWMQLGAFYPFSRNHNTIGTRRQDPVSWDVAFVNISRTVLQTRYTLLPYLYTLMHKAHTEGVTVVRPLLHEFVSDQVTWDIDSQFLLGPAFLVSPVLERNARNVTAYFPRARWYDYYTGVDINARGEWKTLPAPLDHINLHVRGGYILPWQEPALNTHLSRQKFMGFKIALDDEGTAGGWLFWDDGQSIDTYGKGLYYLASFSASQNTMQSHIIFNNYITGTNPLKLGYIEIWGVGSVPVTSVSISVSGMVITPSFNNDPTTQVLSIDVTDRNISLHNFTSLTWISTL

inhibition [1]	inhibition [2]	Structure (SMILES)
26.2%		C=C1CC[C@@H]2[C@]3(C)COC(c4ccc(F)cc4)O[C@@H]3CC[C@@]2(C)[C@@H]1C/C=C1/C(=O)OC[C@H]1O (stereo not given in full)
49.2%		C[C@]1(CO)[C@H]2CC[C@@]3(CO3)[C@@H](/C=C/C3=CC(=C/C=C/c4ccccc4)/OC3=O)[C@]2(C)CC[C@H]1O
17.1%	inactive	C=C1CC[C@@H]2[C@](C)(CO)[C@H](O)CC[C@@]2(C)[C@@H]1/C=C/C1=CC(=C(C)C)OC1=O
43.5%	inactive	C=C1CC[C@@H]2[C@](C)(CO)[C@H](O)CC[C@@]2(C)[C@@H]1/C=C/C1=CC(=C/CCC)/OC1=O
37.7%		COc1ccc(/C=C2C=C(/C=C/[C@@H]3[C@@]4(CC[C@@H]5[C@](C)(CO)[C@H](O)CC[C@]53C)CO4)C(=O)O/2)cc1
inactive		C=C1CC[C@@H]2[C@](C)(CO)[C@H](O)CC[C@@]2(C)[C@@H]1/C=C/C1=CC(=C/C=C(/C)CCC=C(C)C)/OC1=O
inactive		CC(C)=C1C=C(/C=C/[C@@H]2[C@@]3(CC[C@@H]4[C@](C)(CO)[C@H](O)CC[C@]42C)CO3)C(=O)O1
49.6%		C=C1CC[C@@H]2[C@]3(C)COC(c4cccc(Br)c4)O[C@@H]3CC[C@@]2(C)[C@@H]1C/C=C1/C(=O)OC[C@H]1O (stereo not given in full)
inactive	inactive	C=C1CC[C@@H]2[C@]3(C)COCO[C@@H]3CC[C@@]2(C)[C@@H]1C/C=C1/C(=O)OC[C@H]1O
inactive	inactive	C=C1CC[C@@H]2[C@]3(C)COC(C)(C)O[C@@H]3CC[C@@]2(C)[C@@H]1C/C=C1/C(=O)OC[C@H]1O
48.9%		C=C1CC[C@@H]2[C@]3(C)COC(c4ccccc4)O[C@@H]3CC[C@@]2(C)[C@@H]1C/C=C1/C(=O)OC[C@H]1O (stereo not given in full)
34.2%	inactive	C=C1CC[C@@H]2[C@](C)(CO)[C@H](O)CC[C@@]2(C)[C@@H]1CCC1C(=O)OC[C@H]1O (stereo not given in full)

The remaining lines, values behind:

Structure (SMILES)	inhibition [1]	inhibition [2]
C=C1CC[C@@H]2[C@]3(C)COC(c4cc(OC)c(OC)cc4OC)O[C@@H]3CC[C@@]2(C)[C@@H]1C/C=C1/C(=O)OC[C@H]1O (stereo not given in full)	14.5%	
C=C1CC[C@@H]2[C@]3(C)COC(CCCC)O[C@@H]3CC[C@@]2(C)[C@@H]1C/C=C1/C(=O)OC[C@H]1O (stereo not given in full)	inactive	inactive
C=C1CC[C@@H]2[C@](C)(CO)[C@H](O)CC[C@@]2(C)[C@@H]1/C=C/C1=CC(=C/C=C/c2ccccc2)/OC1=O	84.3%	
C=C1CC[C@@H]2[C@]3(C)COC(c4ccc(OC)cc4)O[C@@H]3CC[C@@]2(C)[C@@H]1C/C=C1/C(=O)OC[C@H]1O (stereo not given in full)	13.2%	
C=C1CC[C@@H]2[C@](C)(CO)[C@H](O)CC[C@@]2(C)[C@@H]1/C=C/C1=CCOC1=O	16.5%	inactive
C=C1CC[C@@H]2[C@](C)(CO)[C@H](O)CC[C@@]2(C)[C@@H]1/C=C/C1=CC(=C/c2ccc(Cl)cc2)/OC1=O	inactive	
C=C1CC[C@@H]2[C@](C)(CO)[C@H](O)CC[C@@]2(C)[C@@H]1/C=C/C1=CC(=C/C)/OC1=O	15.1%	inactive
C=C1CC[C@@H]2[C@](C)(CO)[C@H](O)CC[C@@]2(C)[C@@H]1/C=C/C1=CC(=C/c2ccc(OC)cc2)/OC1=O	100%	
C=C1CC[C@@H]2[C@](C)(CO)[C@H](O)CC[C@@]2(C)[C@@H]1/C=C/C1=CC(=C/c2ccc(F)cc2)/OC1=O	inactive	
C=C1CC[C@@H]2[C@](C)(CO)[C@H](O)CC[C@@]2(C)/C1=C/C=C1\C=COC1=O	inactive	inactive
C=C1CC[C@@H]2[C@]3(C)COC(c4ccc(Cl)cc4)O[C@@H]3CC[C@@]2(C)[C@@H]1C/C=C1/C(=O)OC[C@H]1O (stereo not given in full)	inactive	inactive
C=C1CC[C@@H]2[C@]3(C)COC(c4ccccc4OC)O[C@@H]3CC[C@@]2(C)[C@@H]1C/C=C1/C(=O)OC[C@H]1O (stereo not given in full)	5.5%	
C[C@]1(CO)[C@H]2CC[C@@]3(CO3)[C@@H](/C=C/C3=CCOC3=O)[C@]2(C)CC[C@H]1O	inactive	
C=C1CC[C@@H]2[C@]3(C)COC(CCCCCC)O[C@@H]3CC[C@@]2(C)[C@@H]1C/C=C1/C(=O)OC[C@H]1O (stereo not given in full)	20.1%	inactive
C=C1CC[C@@H]2[C@](C)(CO)[C@H](O)CC[C@@]2(C)[C@@H]1C/C=C1/C(=O)OC[C@H]1O	inactive	inactive
C=C1CC[C@@H]2[C@](C)(CO)[C@H](O)CC[C@@]2(C)[C@@H]1/C=C/C1=CC(=C/c2cccc(Br)c2)/OC1=O	16.7%	
